Assay results as given in patent US5885834A, “Antisense oligodeoxynucleotide against phosphodiesterase” (priority 1997, dated 1999).
Entries after “also recorded” stand apart in the source; their conditions may differ.

Key:
PHA-stimulated HPBL = experiment: TUNEL assay of apoptosis, flow cytometry, PHA-stimulated HPBL; type: cell-based, human; conditions: 10 μg/ml PHA-P; 30 μM ODN; 3 days
Description: Nevertheless, the effects of AS ODNs on HPBL can still be tested by quantifying and comparing the percentage of cells undergoing apoptosis in the presence and absence of the AS ODN. Apoptosis detected by examining endonuclease-digested DNA, commonly referred to as the DNA laddering technique, has been employed and the results therefrom are set forth in FIG. 5. However, we prefer to use a TUNEL assay, an acronym for terminal deoxynucleotidyl transferase (TdT)-mediated dUTP nick end labeling, which more readily allows quantitation of the percentage of cells undergoing apoptosis. The principle of the TUNEL assay is that endonuclease digestion during apoptosis results in the formation of 3'-OH ends in the digested DNA. The digested DNA in the apoptotic cells can then be labeled with fluorescein by catalytically incorporating fluorescein-12-dUTP at the 3'-OH ends using the TdT enzyme. Fluorescence can then be quantitated by flow cytometry, using a fluorescence activated cell sorter (FACS), which would give a measure of the number of cells undergoing apoptosis. An example of the appearance of a population of fluorescein labeled apoptotic cells, as evidenced by flow cytometry, following TUNEL assay labeling of the cells, is shown in FIGS. 6A-C. […]

[1] = tested on: β-actin mRNA in RPMI 8392 cells; experiment: Quantitative RT-PCR of β-actin mRNA (control gene) after ODN treatment; type: cell-based, human; conditions: 10 or 30 μM ODN, 1 and 2 days
Description: This is usually determined by looking at the reduction or disappearance of the protein product, either by selective measurement of an enzymatic activity of the protein, where applicable, or by immunoquantitation with specific antibodies by Western blot or ELISA techniques. Also, when PO or PS ODNs are used, which are capable of activating RNase H activity, it is expected that the mRNA of the targeted gene would be down regulated, most of the time, along with the protein product, and this can be readily tested by Northern blot analysis or PCR techniques. Using quantitative RT-PCR with primers specific for PDE1B1, we examined the RPMI 8392 cells for the presence of PDE1B1 mRNA. […] NS ODN, at these concentrations, had no effect on the expression of PDE1B1 mRNA. […]
HPBL were isolated from a normal human donor and placed in culture with (+PHA) or without (-PHA) phytohemagglutinin for 3 days. Quantitative RT-PCR was performed with 2 μg of HPBL RNA, using reagents and protocol from GIBCO/BRL. […]
Using quantitative RT-PCR, the effect of AS ODN and NS ODN on the level of mRNA for PDE1B1 in RPMI 8392 cells was examined. Quantitative RT-PCR was used to determine the relative amounts of β-actin and PDE1B1 mRNAs present in RPMI 8392 cells after 1 and 2 days in culture with 10 μM and 30 μM AS ODN (AS) and NS ODN (NS). […]

Substance | Apoptosis in PHA-stimulated HPBL (TUNEL) (PHA-stimulated HPBL) | Levels of β-actin mRNA [1]
5'-GGACAGCTCCATGCTCAG-3' (phosphorothioate, further chemistry not given here) [AS ODN, 18 nt phosphorothioate antisense oligodeoxynucleotide targeted against the translation initiation region of PDE1B1] | show the appearance of a population of highly fluorescein labeled cells; also recorded: induced apoptosis | unaltered; also recorded: unchanged
5'-TACGTGAGGCACCTACGC-3' (phosphorothioate, further chemistry not given here) [NS ODN, control phosphorothioate nonsense ODN, same base composition as the AS ODN in random, scrambled order] | do not show the appearance of this population; also recorded: no effect | no effect; also recorded: unchanged
